How the values were obtained:
[1] = system: MK-2; conditions: cited from earlier work
[2] = system: endotoxin-induced shock; conditions: murine model of endotoxin-induced shock; cited from earlier work
[3] = system: collagen-induced arthritis; conditions: mouse; cited from earlier work
[4] = system: adjuvant arthritis; conditions: rat; cited from earlier work
[5] = system: LPS-induced TNFα production; experiment: Lipopolysaccharide (LPS)-Induced TNFα Production (Rat LPS Assay); format: in vivo; conditions: at 20 mpk (IP)
[6] = system: granulomas; conditions: laboratory rats; cited from earlier work

## C[S+]([O-])c1ccc(-c2nc(-c3ccncc3)c(-c3ccc(F)cc3)[nH]2)cc1 (stereo not drawn) [SB203580]
[1]
  inhibition of activation of MK-2: inhibit activation of MK-2
[2]
  mortality: reduce mortality
[3]
  development of collagen-induced arthritis: inhibit the development
[4]
  development of adjuvant arthritis: inhibit the development

## N#Cc1c(N)nc2c(c1N)Cc1ccc(OCCN)cc1O2 [Example 12, 2,4-diamino-8-(2-aminoethoxy)-5H-chromeno[2,3-b]pyridine-3-carbonitrile]
[5]
  Rat LPS Assay inhibition: 88%

## Nc1nccc(-c2c(-c3ccc(F)cc3)ncn2C2CCNCC2)n1 [SB 220025]
[6]
  vascular density of granulomas: significant dose-dependent decrease in vascular density of granulomas

— patent US6909001B2 (Pharmacia Corporation, priority 2002, dated 2005)
